{
  "source": "paper PMC11788587",
  "about": "“Validating Low‐Dose Iohexol as a Marker for Glomerular Filtration Rate by In Vitro and In Vivo Studies” (Clinical and Translational Science, 2025)",
  "key": {"hOAT3": {"biological_target": "T1, hOAT3 (Homo sapiens, UniProt Q8TCC7)", "T1 construct": "expressed in transfected cells; host or cells: HEK-293 (293) cells, pEBTetD plasmid, doxycycline-induced", "T1 sequence (Q8TCC7 1-542)": "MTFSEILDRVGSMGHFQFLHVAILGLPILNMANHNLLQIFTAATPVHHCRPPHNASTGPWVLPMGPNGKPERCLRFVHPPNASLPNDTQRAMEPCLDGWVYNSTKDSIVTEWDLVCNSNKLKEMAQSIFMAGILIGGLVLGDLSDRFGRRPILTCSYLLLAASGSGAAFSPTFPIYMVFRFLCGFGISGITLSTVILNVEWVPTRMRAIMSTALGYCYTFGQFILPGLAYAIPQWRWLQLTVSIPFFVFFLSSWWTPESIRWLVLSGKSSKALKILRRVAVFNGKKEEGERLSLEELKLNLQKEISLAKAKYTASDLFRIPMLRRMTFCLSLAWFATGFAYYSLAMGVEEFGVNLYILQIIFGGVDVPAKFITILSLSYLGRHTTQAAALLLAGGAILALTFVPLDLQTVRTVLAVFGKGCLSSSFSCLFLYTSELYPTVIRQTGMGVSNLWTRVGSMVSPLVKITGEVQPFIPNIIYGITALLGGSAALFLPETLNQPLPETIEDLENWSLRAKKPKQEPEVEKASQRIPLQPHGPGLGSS", "experiment": "Inhibition of hOAT3-mediated E3S uptake, stably transfected 293 cells", "format": "cell-based", "conditions": "substrate 3 µM E3S, median (95% CI)", "source_text": "We characterized the inhibitory potential of iohexol on major drug transporters recommended by regulatory agencies, which were previously assessed in a clinical transporter phenotyping cocktail study. These transporters include hOAT1, hOAT3, hOCT1, hOCT2, hMATE1, hMATE2K, human organic anion transporter polypeptides (hOATP)1B1, hOATP1B3, and human multidrug resistance protein (hMDR)1. Additionally, we investigated whether iohexol is a substrate for any of the renal transporters among these, including hOAT1/3, hOCT1/2, and hMATE1/2K. Cell‐based uptake assays were used to assess the activities of hOAT1/3, hOCT1/2, hMATE1/2K, and hOATP1B1/1B3. Inside‐out membrane vesicle uptake assays were used to evaluate the activity of hMDR1.\nTo determine the maximal inhibitory potential of iohexol, intracellular accumulation of a standard substrate was measured with and without the clinically relevant highest concentrations of iohexol. Control inhibitors were tested in each experiment.\nIn all subsequent in vitro studies, control experiments were conducted to validate the results. These included positive controls for substrates and inhibitors, as well as cells either without transporter expression or transfected with an empty vector, and control vesicles. Each condition, including cells or vesicles with the transporter and their respective controls, was analyzed in at least three replicates. For detailed information on materials, methods, and data analysis techniques used, refer to the Supporting Information. […]\nR version 4.2.1 (R Foundation for Statistical Computing, Vienna, Austria) was used for statistical evaluations and data visualization. The data analysis approach for the in vitro study was detailed by Hsin CH et al..^1 In brief, for transport assays, the initial uptake rate was calculated by normalizing the substrate concentration to both the protein concentration and the incubation time for each dish or well. The transporter-mediated uptake rate (net uptake) was determined by performing an element-wise subtraction of uptake rates from different conditions. […]"}, "[1]": {"experiment": "Clinical trial in healthy volunteers, population pharmacokinetic analysis;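 also: population pharmacokinetic parameters fitted to plasma and urine data, interindividual variability modelled exponentially, inter-occasion variability tied additively, sensitivity analysis compares alternative models omitting data from one subject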", "format": "in vivo, human"}, "[2]": {"conditions": "Model 1: excluding samples within 45 minutes after the test dose for the subject with delayed absorption"}, "[3]": {"conditions": "Model 2: excluding all data from the subject with delayed absorption when receiving the test dose"}, "[4]": {"conditions": "final model, entire dataset, n=12"}, "[5]": {"conditions": "final model, nonparametric bootstrap"}, "[6]": {"conditions": "one subject, test dose period with suspected paravenous administration, model with absorption phase"}},
  "note": "Read-outs that look alike come from different tables or passages of the source.",
  "data": [
    {"smiles": "CC(=O)N(CC(O)CO)c1c(I)c(C(=O)NCC(O)CO)c(I)c(C(=O)NCC(O)CO)c1I", "note": "(stereo not drawn) [iohexol]", "values": [
      {"measurement": "Inhibitory effect (% reduction of specific activity)", "setting": "hOAT3; 20 mM iohexol", "result": "no notable inhibitory effects"},
      {"measurement": "inhibition at 1000 µM", "setting": "hOAT3; HEK293, 1 mM iohexol, read-out: Inhibitory effect (% reduction of specific activity)", "result": -4, "unit": "%"},
      {"measurement": "inhibition at 20000 µM", "setting": "hOAT3; HEK293, 20 mM iohexol, read-out: Inhibitory effect (% reduction of specific activity)", "result": -3.5, "unit": "%"},
      {"measurement": "Effect of dose level (categorical covariate) on PK parameters", "setting": "[1]; 259 mg vs 3235 mg", "result": "did not differ significantly"},
      {"measurement": "Inter-individual variability CLR estimate", "setting": "[1]; Model 1", "result": 14.4, "unit": "CV%"},
      {"measurement": "Inter-individual variability V1 estimate", "setting": "[1]; Model 1", "result": 16.8, "unit": "CV%"},
      {"measurement": "Inter-individual variability V2 estimate", "setting": "[1]; Model 1", "result": 15.1, "unit": "CV%"},
      {"measurement": "Inter-individual variability V3 estimate", "setting": "[1]; Model 1", "result": 15.0, "unit": "CV%"},
      {"measurement": "Inter-occasion variability CLR estimate", "setting": "[1]; Model 1", "result": 3.69, "unit": "CV%"},
      {"measurement": "Inter-occasion variability Q2 estimate", "setting": "[1]; Model 1", "result": 23.7, "unit": "CV%"},
      {"measurement": "Inter-occasion variability V1 estimate", "setting": "[1]; Model 1", "result": 4.82, "unit": "CV%"},
      {"measurement": "Q1 estimate", "setting": "[1]; [2]", "result": 0.219, "unit": "L/h"},
      {"measurement": "Q2 estimate", "setting": "[1]; [2]", "result": 5.53, "unit": "L/h"},
      {"measurement": "V1 estimate", "setting": "[1]; [2]", "result": 8.91, "unit": "L"},
      {"measurement": "V2 estimate", "setting": "[1]; [2]", "result": 1.54, "unit": "L"},
      {"measurement": "V3 estimate", "setting": "[1]; [2]", "result": 4.30, "unit": "L"},
      {"measurement": "Inter-individual variability CLR estimate", "setting": "[1]; Model 2", "result": 14.2, "unit": "CV%"},
      {"measurement": "Inter-individual variability V1 estimate", "setting": "[1]; Model 2", "result": 17.2, "unit": "CV%"},
      {"measurement": "Inter-individual variability V2 estimate", "setting": "[1]; Model 2", "result": 13.8, "unit": "CV%"},
      {"measurement": "Inter-individual variability V3 estimate", "setting": "[1]; Model 2", "result": 13.5, "unit": "CV%"},
      {"measurement": "Inter-occasion variability CLR estimate", "setting": "[1]; Model 2", "result": 2.33, "unit": "CV%"},
      {"measurement": "Inter-occasion variability Q2 estimate", "setting": "[1]; Model 2", "result": 17.1, "unit": "CV%"},
      {"measurement": "Inter-occasion variability V1 estimate", "setting": "[1]; Model 2", "result": 3.87, "unit": "CV%"},
      {"measurement": "Q1 estimate", "setting": "[1]; [3]", "result": 0.227, "unit": "L/h"},
      {"measurement": "Q2 estimate", "setting": "[1]; [3]", "result": 5.38, "unit": "L/h"},
      {"measurement": "V1 estimate", "setting": "[1]; [3]", "result": 8.90, "unit": "L"},
      {"measurement": "V2 estimate", "setting": "[1]; [3]", "result": 1.57, "unit": "L"},
      {"measurement": "V3 estimate", "setting": "[1]; [3]", "result": 4.30, "unit": "L"},
      {"measurement": "Interindividual variability CLR, point estimate", "setting": "[1]; final model, entire dataset", "result": 14.0, "unit": "CV%"},
      {"measurement": "Interindividual variability V1, point estimate", "setting": "[1]; final model, entire dataset", "result": 16.6, "unit": "CV%"},
      {"measurement": "Interindividual variability V2, point estimate", "setting": "[1]; final model, entire dataset", "result": 14.0, "unit": "CV%"},
      {"measurement": "Interindividual variability V3, point estimate", "setting": "[1]; final model, entire dataset", "result": 15.5, "unit": "CV%"},
      {"measurement": "Interoccasion variability CLR, point estimate", "setting": "[1]; final model, entire dataset", "result": 2.51, "unit": "CV%"},
      {"measurement": "Interoccasion variability Q2, point estimate", "setting": "[1]; final model, entire dataset", "result": 29.2, "unit": "CV%"},
      {"measurement": "Interoccasion variability V1, point estimate", "setting": "[1]; final model, entire dataset", "result": 6.23, "unit": "CV%"},
      {"measurement": "Q1 point estimate", "setting": "[1]; [4]", "result": 0.221, "unit": "L/h"},
      {"measurement": "Q2 point estimate", "setting": "[1]; [4]", "result": 5.84, "unit": "L/h"},
      {"measurement": "V1 point estimate", "setting": "[1]; [4]", "result": 9.06, "unit": "L"},
      {"measurement": "V2 point estimate", "setting": "[1]; [4]", "result": 1.56, "unit": "L"},
      {"measurement": "V3 point estimate", "setting": "[1]; [4]", "result": 4.34, "unit": "L"},
      {"measurement": "Interindividual variability CLR, bootstrap median (95% CI)", "setting": "[1]; [5]", "result": "13.5 (5.05–20.1) CV%"},
      {"measurement": "Interindividual variability V1, bootstrap median (95% CI)", "setting": "[1]; [5]", "result": "15.5 (6.88–23.1) CV%"},
      {"measurement": "Interindividual variability V2, bootstrap median (95% CI)", "setting": "[1]; [5]", "result": "13.4 (7.81–20.7) CV%"},
      {"measurement": "Interindividual variability V3, bootstrap median (95% CI)", "setting": "[1]; [5]", "result": "13.7 (5.57–19.2) CV%"},
      {"measurement": "Interoccasion variability CLR, bootstrap median (95% CI)", "setting": "[1]; [5]", "result": "2.44 (0.900–3.87) CV%"},
      {"measurement": "Interoccasion variability Q2, bootstrap median (95% CI)", "setting": "[1]; [5]", "result": "28.7 (6.99–65.8) CV%"},
      {"measurement": "Interoccasion variability V1, bootstrap median (95% CI)", "setting": "[1]; [5]", "result": "6.06 (1.55–10.2) CV%"},
      {"measurement": "Q1 bootstrap median (95% CI)", "setting": "[1]; [5]", "result": "0.219 (0.164–0.313) L/h"},
      {"measurement": "Q2 bootstrap median (95% CI)", "setting": "[1]; [5]", "result": "5.76 (4.11–8.23) L/h"},
      {"measurement": "V1 bootstrap median (95% CI)", "setting": "[1]; [5]", "result": "9.06 (8.18–10.1) L"},
      {"measurement": "V2 bootstrap median (95% CI)", "setting": "[1]; [5]", "result": "1.57 (1.36–1.87) L"},
      {"measurement": "V3 bootstrap median (95% CI)", "setting": "[1]; [5]", "result": "4.34 (3.81–4.99) L"},
      {"measurement": "CL renal", "setting": "[1]; human, plasma and urine, intravenous, Model 1: excluding samples within 45 minutes after the test dose for the subject with delayed absorption, read-out: CLR estimate (converted)", "result": 90.8, "unit": "mL/min"},
      {"measurement": "CL renal", "setting": "[1]; human, plasma and urine, intravenous, Model 2: excluding all data from the subject with delayed absorption when receiving the test dose, read-out: CLR estimate (converted)", "result": 91.5, "unit": "mL/min"},
      {"measurement": "CL renal", "setting": "[1]; human, plasma and urine, intravenous, final model, entire dataset, n=12, read-out: CLR point estimate (converted)", "result": 91.7, "unit": "mL/min"},
      {"measurement": "CL renal", "setting": "[1]; human, plasma and urine, intravenous, final model, nonparametric bootstrap, read-out: CLR bootstrap median (95% CI) (converted)", "result": 91.7, "unit": "mL/min"},
      {"measurement": "CL renal", "setting": "[1]; human, plasma and urine, intravenous, final model, read-out: Individual empirical Bayesian estimates of CLR, median (range) (converted)", "result": 87.5, "unit": "mL/min"},
      {"measurement": "Vd", "setting": "[1]; human, plasma and urine, intravenous, final model, read-out: Individual empirical Bayesian estimates of volume of distribution (sum of V1, V2, and V3), median (range)", "result": 15.1, "unit": "L"},
      {"measurement": "First-order absorption rate constant", "setting": "[1]; [6]", "result": 0.876, "unit": "h⁻¹"},
      {"measurement": "Relative bioavailability", "setting": "[1]; [6]", "result": 93.6, "unit": "%"}
    ]}
  ]
}
